Results taken from paper PMC3938723, “Learning from Host-Defense Peptides: Cationic, Amphipathic Peptoids with Potent Anticancer Activity” (PLoS ONE, 2014).
Non-standard residues stand in square brackets, D forms with d. Residues, ends and D or L forms follow the SMILES beside them. Nspe = C[C@H](NCC(=O)O)c1ccccc1; NhArg = N=C(N)NCCCCNCC(=O)O; Nphe = O=C(O)CNCc1ccccc1; Nlys = NCCCCNCC(=O)O

Columns and labels:
[1] = test system: OVCAR3 (ovarian cancer); assay: MTS cell viability assay, OVCAR3; assay type: cell-based
Description: (§1) MCF-7, MCF-7/TxT50 and OVCAR-3 (available in ATCC) were kindly provided by Professor Branimir Sikic's lab at Stanford University, and were cultured in McCoy's 5A media (GIBCO) with 10% FBS and antibiotics. Primary dermal fibroblasts were gifts from Lifeline Cell Technology and were cultured <6 passages according to the protocol Lifeline provides. All the cells were cultured in cell incubators (Thermo Scientific) at 37°C with 5% CO2.
(§2) This assay is a colorimetric method for determining the number of viable cells in proliferation. Aliquots of 100 µl media containing 1×10^4 cells were distributed into each well of a 96-well plate (BD Falcon). The following day, when cell density reaches about ∼40% confluency, the cell media were removed and replaced with serial dilutions of peptoid stocks in culturing media. For peptoid dilutions, peptoid stocks were initially diluted in media at 100 µM and then diluted by half in series using a multichannel pipette, and maintained in 100 µl media for each concentration with triple repeats. After peptoid solutions were transferred onto cells in 96-well plates, cells were incubated at 37°C for certain time periods. Then 20 µl of the CellTiter 96 Aqueous Non-Radioactive cell proliferation assay (Promega) reagent which contains a tetrazolium compound, [3-(4,5-dimethylthiazol-2-yl)-5-(3-carboxymethoxyphenyl)-2-(4-sulfophenyl)-2H-tetrazolium, inner salt; MTS(a)], was added to each well and cells were further incubated for 2 h to metabolize. The absorbance of formazan products were measured at 490 nm in a microplate reader (Molecular Devices). Percentage of cell viability = (A -A testblank)/(A control -A blank)×100, where A is the absorbance of the test well and A control the average absorbance of wells with cells not treated with peptoids. A testblank (media, MTS, and diluted peptoids) and A blank (media and MTS) were background absorbances measured in the absence of cells.
(§3) The activity and selectivity of these peptoids against cancer cells were evaluated in vitro. Their cytotoxicity was tested in three cancer cell lines, MCF-7 (human breast cancer), LNCaP (human prostate cancer), and OVCAR-3 (human ovarian cancer). To estimate the selectivity of these peptoids in vitro, hemolytic activities of some peptoids were cited from previously published work (Table 2 **column), and the MRC-5 cell line (human fibroblasts derived from fetal lung tissues) and primary dermal fibroblasts were also tested as normal cell controls. Briefly, cells were treated with peptoids diluted in culturing media for certain time periods, and then cell viability was measured via MTS assays.

[2] = Analytical RP-HPLC elution as relative measure of molecular hydrophobicity; assay type: physicochemical; settings: percentage of acetonitrile at elution, analytic RP-HPLC, C18 column, linear water/acetonitrile (0.1% trifluoroacetic acid) gradient 5%-95% acetonitrile over 30 min
Source text: Peptoids were synthesized using an ABI 433A peptide synthesizer (Applied Biosystems, Inc.) on Rink amide MBHA resin (EMD Biosciences, Gibbstown, NJ) using the submonomer protocol, [24]. Briefly, the amine on the nascent chain is bromoacetylated or chloroacetylated followed by SN2 displacement of bromide or chloride by a primary amine to form the side chain. Resin-bound peptoids were then exposed to a mixture of trifluoroacetic acid (TFA): triisopropylsilane: water (95∶2.5∶2.5, volume ratio) for 10 minutes to cleave peptoids from the resin. Crude peptoids were purified by reversed-phase high performance liquid chromatography (RP-HPLC) (Waters Corporation) using a C18 column and a linear acetonitrile/water gradient. A final purity >95% as measured by analytical RP-HPLC (Waters Corporation) was achieved, and the identity of each peptoid was confirmed using electrospray ionization mass spectrometry (ESI/MS). Pexiganan was synthesized by standard Fmoc chemistry on an ABI 433A peptide synthesizer ([…]). Unless indicated otherwise, all reagents were purchased from Sigma Aldrich (St. Louis, MO). Among the submonomers used, Nspe was derived from (S)-N-(1-phenylethyl)amine; Npm from benzylamine ([…]); NHis from histamine (2-[4-imidazolyl]ethylamine); NLeu from isobutylamine; NLys from N-tert-butoxycarbonyl-1,4-butanediamine (CNH Technologies, MA). Guanidinylation of NLys was carried out according to the reported procedure. When NHis was used in the peptoid sequence, chloroacetic acid was used. 5(6)-Carboxyfluorescein was used to label the N-terminus of peptoid 1 [28].
Peptoids were utilized herein as a peptidomimetic scaffold to capture the cationic, amphipathic nature of anticancer peptides, as well as to improve molecular stability and to increase chemical diversity. The design of anticancer peptoids were derived from previous antimicrobial peptoids and were further optimized hererin to improve the activity and selectivity of peptoids against anionic membranes, [24], [25]. […] Several novel variants were designed based on peptoid 1 but with different charges, amphipathicity, length, and helicity to change their activity or selectivity. The sequences of these variants, the solvent composition at RP-HPLC elution as a relative measure of molecular hydrophobicity, molecular net charges and their charge-to-length ratio are summarized in Table 1. […] Pexiganan, a clinically-relevant peptide analog of magainin 2 which was developed for topical treatment for diabetic foot infection, and LL-37, the only known human cathelicidin which is a non-selective antimicrobial peptide, were also tested for comparison.

[3] = test system: Primary dermal fibroblast; assay: MTS cell viability assay, primary dermal fibroblasts; assay type: cell-based
Description: as §1, §2, §3

[4] = test system: human red blood cells; settings: cited from earlier work
Source text: Table 2 Peptoid Cytotoxicity in cancer cell lines and control cells. | column: HC10 (µM) ** || The chain length is believed to influence not only the activity but also modes of action of cationic, amphipathic peptides, [34]. […] Thus we limited the chain length of peptoids to 13 residues at most, and studied 1 9mer which has the same charge-to-length ratio (CTLR) as peptoid ...

[5] = test system: MRC-5 (fetal lung fibroblast); assay: MTS cell viability assay, MRC-5; assay type: cell-based
Description: as §1, §2, §3

[6] = test system: LNCaP (prostate cancer); assay: MTS cell viability assay, LNCaP; assay type: cell-based
Description: as §2, §3

[7] = test system: MCF-7 (breast cancer); assay: MTS cell viability assay, MCF-7; assay type: cell-based
Description: as §1, §2, §3

[8] = MTS assay, 72 h treatment, media with 10% FBS, max 100 µM tested, triple repeats
[9] = normal cell control, MTS assay, 72 h treatment, media with 10% FBS, max 100 µM tested

C[C@@H](c1ccccc1)N(CC(=O)N(CC(=O)N(CCCCN)CC(=O)N(CC(=O)N(CC(=O)N(CCCCN)CC(=O)N(CC(=O)N(CC(=O)N(CCCCN)CC(=O)N(CC(=O)N(CC(N)=O)Cc1ccccc1)Cc1ccccc1)Cc1ccccc1)Cc1ccccc1)Cc1ccccc1)Cc1ccccc1)Cc1ccccc1)C(=O)CNCCCCN [1 achiral-Nspe2, H-NLys-Nspe-Npm-(NLys-Npm-Npm)3-NH2] (H-[Nlys][Nspe][Nphe][Nlys][Nphe][Nphe][Nlys][Nphe][Nphe][Nlys][Nphe][Nphe]-NH2)
LC50 OVCAR3 (ovarian cancer) ([1]; 72 h): 16 µM
HPLC elution [2]: 60.8 % ACN
LC50 Primary dermal fibroblast ([3]; 72 h): 36 µM
HC10 [4]: 160 µM
LC50 MRC-5 (fetal lung fibroblast) ([5]; 72 h): 22 µM
LC50 LNCaP (prostate cancer) ([6]; 72 h): 11 µM
LC50 MCF-7 (breast cancer) ([7]; 72 h): 13 µM

NCCCCNCC(=O)N(CC(=O)N(CC(=O)N(CCCCN)CC(=O)N(CC(=O)N(CC(=O)N(CCCCN)CC(=O)N(CC(=O)N(CC(=O)N(CCCCN)CC(=O)N(CC(=O)N(CC(N)=O)Cc1ccccc1)Cc1ccccc1)Cc1ccccc1)Cc1ccccc1)Cc1ccccc1)Cc1ccccc1)Cc1ccccc1)Cc1ccccc1 [1 achiral, H-(NLys-Npm-Npm)4-NH2] (H-[Nlys][Nphe][Nphe][Nlys][Nphe][Nphe][Nlys][Nphe][Nphe][Nlys][Nphe][Nphe]-NH2)
LC50 OVCAR3 (ovarian cancer) ([1]; 72 h): 16 µM
HPLC elution [2]: 59.8 % ACN
LC50 Primary dermal fibroblast ([3]; 72 h): 39 µM
selectivity ratio ([3]; LC50 in primary dermal fibroblast divided by LC50 in cancer cells): ~3
HC10 [4]: 183 µM
LC50 MRC-5 (fetal lung fibroblast) ([5]; 72 h): 30 µM
LC50 LNCaP (prostate cancer) ([6]; 72 h): 11 µM
LC50 MCF-7 (breast cancer) ([7]; 72 h): 13 µM

CC[C@H](C)[C@H](NC(=O)CN)C(=O)NCC(=O)N[C@@H](CCCCN)C(=O)N[C@@H](Cc1ccccc1)C(=O)N[C@@H](CC(C)C)C(=O)N[C@@H](CCCCN)C(=O)N[C@@H](CCCCN)C(=O)N[C@@H](C)C(=O)N[C@@H](CCCCN)C(=O)N[C@@H](CCCCN)C(=O)N[C@@H](Cc1ccccc1)C(=O)NCC(=O)N[C@@H](CCCCN)C(=O)N[C@@H](C)C(=O)N[C@@H](Cc1ccccc1)C(=O)N[C@H](C(=O)N[C@@H](CCCCN)C(=O)N[C@H](C(=O)N[C@@H](CC(C)C)C(=O)N[C@@H](CCCCN)C(=O)N[C@@H](CCCCN)C(N)=O)[C@@H](C)CC)C(C)C [Pexiganan, reference compound] (H-GIGKFLKKAKKFGKAFVKILKK-NH2)
LC50 OVCAR3 (ovarian cancer) [1, 8]: 13 µM
LC50 Primary dermal fibroblast [3, 9]: 19 µM
HC10 [4]: 70 µM
LC50 MRC-5 (fetal lung fibroblast) [5, 9]: 21 µM
LC50 LNCaP (prostate cancer) [6, 8]: 6 µM
LC50 MCF-7 (breast cancer) [7, 8]: 8 µM

H-(NLys-Nspe-Nspe)5-NH2 [peptoid 1 15mer, reference compound]
hemolytic activity [4]: substantially higher hemolytic activity

CC(C)CN(CC(N)=O)C(=O)CN(CCCCN)C(=O)CN(CC(C)C)C(=O)CN(CC(C)C)C(=O)CN(CCCCN)C(=O)CN(CC(C)C)C(=O)CN(CC(C)C)C(=O)CN(CCCCN)C(=O)CN(CC(C)C)C(=O)CN(CC(C)C)C(=O)CNCCCCN [1 11mer-NLeu, H-(NLys-NLeu-NLeu)3-NLys-NLeu-NH2]
LC50 OVCAR3 (ovarian cancer) ([1]; 72 h): >100 µM
HPLC elution [2]: 51 % ACN
LC50 Primary dermal fibroblast ([3]; 72 h): >100 µM
LC50 MRC-5 (fetal lung fibroblast) ([5]; 72 h): >100 µM
LC50 LNCaP (prostate cancer) ([6]; 72 h): >100 µM
LC50 MCF-7 (breast cancer) ([7]; 72 h): >100 µM

CC[C@H](C)[C@H](NC(=O)[C@H](CCCCN)NC(=O)[C@H](CCC(=O)O)NC(=O)[C@H](CCCCN)NC(=O)[C@H](CO)NC(=O)[C@H](CCCCN)NC(=O)[C@H](CCCNC(=N)N)NC(=O)[C@H](Cc1ccccc1)NC(=O)[C@H](Cc1ccccc1)NC(=O)[C@H](CC(=O)O)NC(=O)CNC(=O)[C@H](CC(C)C)NC(=O)[C@@H](N)CC(C)C)C(=O)NCC(=O)N[C@@H](CCCCN)C(=O)N[C@@H](CCC(=O)O)C(=O)N[C@@H](Cc1ccccc1)C(=O)N[C@@H](CCCCN)C(=O)N[C@@H](CCCNC(=N)N)C(=O)N[C@H](C(=O)N[C@H](C(=O)N[C@@H](CCC(N)=O)C(=O)N[C@@H](CCCNC(=N)N)C(=O)N[C@H](C(=O)N[C@@H](CCCCN)C(=O)N[C@@H](CC(=O)O)C(=O)N[C@@H](Cc1ccccc1)C(=O)N[C@@H](CC(C)C)C(=O)N[C@@H](CCCNC(=N)N)C(=O)N[C@@H](CC(N)=O)C(=O)N[C@@H](CC(C)C)C(=O)N[C@H](C(=O)N1CCC[C@H]1C(=O)N[C@@H](CCCNC(=N)N)C(=O)N[C@H](C(=O)N[C@@H](CCC(=O)O)C(=O)N[C@@H](CO)C(=O)O)[C@@H](C)O)C(C)C)[C@@H](C)CC)C(C)C)[C@@H](C)CC [LL 37, LL-37, reference compound]
LC50 OVCAR3 (ovarian cancer) ([1]; 72 h): 24 µM
LC50 Primary dermal fibroblast ([3]; 72 h): 26 µM
LC50 MRC-5 (fetal lung fibroblast) ([5]; 72 h): 24 µM
LC50 LNCaP (prostate cancer) ([6]; 72 h): 27 µM
LC50 MCF-7 (breast cancer) ([7]; 72 h): 21 µM

C[C@@H](c1ccccc1)N(CC(N)=O)C(=O)CN(C(=O)CN(CCCCNC(=N)N)C(=O)CN(C(=O)CN(C(=O)CN(CCCCNC(=N)N)C(=O)CN(C(=O)CN(C(=O)CN(CCCCNC(=N)N)C(=O)CN(C(=O)CN(C(=O)CNCCCCNC(=N)N)[C@@H](C)c1ccccc1)[C@@H](C)c1ccccc1)[C@@H](C)c1ccccc1)[C@@H](C)c1ccccc1)[C@@H](C)c1ccccc1)[C@@H](C)c1ccccc1)[C@@H](C)c1ccccc1 [Peptoid 1-Nbtg, H-(Nbtg-Nspe-Nspe)4-NH2] (H-[NhArg][Nspe][Nspe][NhArg][Nspe][Nspe][NhArg][Nspe][Nspe][NhArg][Nspe][Nspe]-NH2)
LC50 OVCAR3 (ovarian cancer) ([1]; 72 h): 8 µM
LC50 Primary dermal fibroblast ([3]; 72 h): 8 µM
LC50 MRC-5 (fetal lung fibroblast) ([5]; 72 h): 10 µM
LC50 LNCaP (prostate cancer) ([6]; 72 h): 8 µM
LC50 MCF-7 (breast cancer) ([7]; 72 h): 5 µM

C[C@@H](c1ccccc1)N(CC(N)=O)C(=O)CN(Cc1ccccc1)C(=O)CN(CCCCN)C(=O)CN(Cc1ccccc1)C(=O)CN(Cc1ccccc1)C(=O)CN(CCCCN)C(=O)CN(Cc1ccccc1)C(=O)CN(Cc1ccccc1)C(=O)CN(CCCCN)C(=O)CN(Cc1ccccc1)C(=O)CN(C(=O)CNCCCCN)[C@@H](C)c1ccccc1 [1 achiral-Nspe2, 12, H-NLys-Nspe-Npm-(NLys-Npm-Npm)2-NLys-Npm-Nspe-NH2]
LC50 OVCAR3 (ovarian cancer) ([1]; 72 h): 16 µM
HPLC elution [2]: 62 % ACN
LC50 Primary dermal fibroblast ([3]; 72 h): 32 µM
LC50 MRC-5 (fetal lung fibroblast) ([5]; 72 h): 21 µM
LC50 LNCaP (prostate cancer) ([6]; 72 h): 10 µM
LC50 MCF-7 (breast cancer) ([7]; 72 h): 12 µM
